# Measurements reported in patent publication US9702866B2, “Glatiramer acetate human monocytic cell line-based potency assay” (SYNTHON B.V., priority 2013, dated 2017).
# How the values were obtained:
# THP-1 cells [1] = test: lactate dehydrogenase (LDH) release as marker for cell death in IFNγ-activated THP-1 cells; assay type: cell-based, human; details: 100 μg/ml glatiramer acetate, IFNγ (10 ng/ml)-activated THP-1 cells
# THP-1 cells [2] = test: sIL-1Ra expression of IFNγ-stimulated THP-1 cells after exposure to GA (ELISA); assay type: cell-based, human; details: THP-1 cells in the presence of IFNγ
# Method: • Add 10 ml RPMI-1640 Medium (Lonza/Cambrex, #12-70F) with 10% FBS (fetal bovine serum) to a 15 ml sterile tube. • Remove one vial of THP-1 cells (ATCC, #TIB-202) from the liquid nitrogen storage tank and thaw the cells in the vial by gentle agitation in a 37° C.±1° C. water bath until almost totally thawed. • Sterilize the outside of the vial using a wipe, soaked in 70% (v/v) ethanol. • Using good aseptic technique, open the vial and transfer the contents of the vial into a Falcon tube, adding 10 ml of the pre-warmed RPMI-1640 plus 10% FBS. • Spin down at approximately 200 g for 5 minutes. Afterwards, discard the supernatant. • Resuspend the pellet into 10 ml pre-warmed RPMI-1640 plus 10% FBS, and transfer the cell suspension to a T-25 culture flask. • Place the T-25 cell culture flask into a humidified incubator at 37±1° C. and 5.0±1% CO2. Sub-Culturing (Passaging) of THP-1 Cells • THP-1 cells are sub-cultured every 3 or 4 days. • Collect cells and spin down at 200 g for 5 min. […] Supernatant Harvest and ELISA • After 72 hours of incubation centrifuge the 96-well plate at 200 g for 5 minutes. • Transfer 125 μl of the cell-free supernatant/well to a storage plate. • sIL-1Ra is determined in the cell supernatants using the sIL-1Ra ELISA kit from Quantikine, R&D, Minneapolis, Minn. […]
# [3] = system: Human leukemic monocyte lymphoma cells (U937); test: responsiveness of U937 cells to GA; assay type: cell-based
# THP-1 cells [4] = test: cell viability by ATP levels (CellTiter-Glo) in IFNγ-activated THP-1 cells; assay type: cell-based, human; details: IFNγ (25 ng/ml)-activated THP-1 cells, after 120 h of culture
# Method: In another embodiment of the present invention, the viability of human monocytic cell line cells, particularly THP-1 cells, is measured. Suitable methods to determine viability of human monocytic cell line cells are well-known to the person skilled in the art. One suitable method is measuring ATP levels (for instance the CellTiter-Glo® Luminescent Cell Viability Assay is a homogeneous method to determine the number of viable cells in culture based on quantitation of the ATP present, which signals the presence of metabolically active cells) after a suitable time period, typically after 96-144 hours, particularly after 120 hours. When determining the number of viable cells, similar or slightly higher concentrations of IFNγ can be used as described above.
# Upon confirmation of parallelism the reduced model will be fitted and the EC50 for the Reference and test batch will be estimated by EC50RS and EC50TA respectively. The relative potency of the test batch will be estimated as: Relative potency=EC50RS/EC50TA*100% Cell Viability • The number of metabolically active cells in the cultures is determined by the CellTiter-Glo® Luminescent Cell Viability Assay (Promega, G7571). […] It is based on quantitation of adenosine tri-phosphate (ATP), which signals the presence of metabolically active cells.
# human monocytes = human monocytes in vitro; cited from earlier work
# [5] = MS patients, in vivo; cited from earlier work
substance,measurement,setting,value
Glatiramer acetate [GA],cell death (LDH release),THP-1 cells [1],induces cell death
same,sIL-1Ra secretion,THP-1 cells [2],induces sIL-1Ra secretion
same,responsiveness of cells to GA,[3],not responsive
same,cell viability (ATP levels),THP-1 cells [4],cell viability inhibition
same,production of sIL-1Ra in monocytes,human monocytes,induces the production
same,sIL-1Ra circulating levels,[5],enhances sIL-1Ra circulating levels
